In assay [1] the target is T1, FL-SMARCA2 (full-length human SMARCA2 isoform 1) (Homo sapiens, UniProt P51531).
T1 construct: FLAG tag (YKDDDDK) (C); made in house; host or cells: Sf21 insect cells (baculovirus, pFastBacI)
In words: SMARCA2 ATPase activity assay (ADP-Glo, chicken mononucleosome substrate). The assay is classed as biochemical. The settings on record: Table 3.1; ATPase assay, enzyme 5 nM, ATP 250 uM, chicken mononucleosome 10 nM, 30 min preincubation.

A further assay addresses FL-SMARCA4 (Homo sapiens, UniProt P51532). The experiment in a line: SMARCA4 ATPase activity assay (ADP-Glo, chicken mononucleosome substrate). To be noted: FL-SMARCA4 IC50, Table 3.2; ATPase assay, enzyme 5 nM, ATP 250 uM, chicken mononucleosome 10 nM, 30 min preincubation.

Where only a bound is given, the exact number is not on record here.

T1 sequence (P51531 with tags, fused parts or gaps): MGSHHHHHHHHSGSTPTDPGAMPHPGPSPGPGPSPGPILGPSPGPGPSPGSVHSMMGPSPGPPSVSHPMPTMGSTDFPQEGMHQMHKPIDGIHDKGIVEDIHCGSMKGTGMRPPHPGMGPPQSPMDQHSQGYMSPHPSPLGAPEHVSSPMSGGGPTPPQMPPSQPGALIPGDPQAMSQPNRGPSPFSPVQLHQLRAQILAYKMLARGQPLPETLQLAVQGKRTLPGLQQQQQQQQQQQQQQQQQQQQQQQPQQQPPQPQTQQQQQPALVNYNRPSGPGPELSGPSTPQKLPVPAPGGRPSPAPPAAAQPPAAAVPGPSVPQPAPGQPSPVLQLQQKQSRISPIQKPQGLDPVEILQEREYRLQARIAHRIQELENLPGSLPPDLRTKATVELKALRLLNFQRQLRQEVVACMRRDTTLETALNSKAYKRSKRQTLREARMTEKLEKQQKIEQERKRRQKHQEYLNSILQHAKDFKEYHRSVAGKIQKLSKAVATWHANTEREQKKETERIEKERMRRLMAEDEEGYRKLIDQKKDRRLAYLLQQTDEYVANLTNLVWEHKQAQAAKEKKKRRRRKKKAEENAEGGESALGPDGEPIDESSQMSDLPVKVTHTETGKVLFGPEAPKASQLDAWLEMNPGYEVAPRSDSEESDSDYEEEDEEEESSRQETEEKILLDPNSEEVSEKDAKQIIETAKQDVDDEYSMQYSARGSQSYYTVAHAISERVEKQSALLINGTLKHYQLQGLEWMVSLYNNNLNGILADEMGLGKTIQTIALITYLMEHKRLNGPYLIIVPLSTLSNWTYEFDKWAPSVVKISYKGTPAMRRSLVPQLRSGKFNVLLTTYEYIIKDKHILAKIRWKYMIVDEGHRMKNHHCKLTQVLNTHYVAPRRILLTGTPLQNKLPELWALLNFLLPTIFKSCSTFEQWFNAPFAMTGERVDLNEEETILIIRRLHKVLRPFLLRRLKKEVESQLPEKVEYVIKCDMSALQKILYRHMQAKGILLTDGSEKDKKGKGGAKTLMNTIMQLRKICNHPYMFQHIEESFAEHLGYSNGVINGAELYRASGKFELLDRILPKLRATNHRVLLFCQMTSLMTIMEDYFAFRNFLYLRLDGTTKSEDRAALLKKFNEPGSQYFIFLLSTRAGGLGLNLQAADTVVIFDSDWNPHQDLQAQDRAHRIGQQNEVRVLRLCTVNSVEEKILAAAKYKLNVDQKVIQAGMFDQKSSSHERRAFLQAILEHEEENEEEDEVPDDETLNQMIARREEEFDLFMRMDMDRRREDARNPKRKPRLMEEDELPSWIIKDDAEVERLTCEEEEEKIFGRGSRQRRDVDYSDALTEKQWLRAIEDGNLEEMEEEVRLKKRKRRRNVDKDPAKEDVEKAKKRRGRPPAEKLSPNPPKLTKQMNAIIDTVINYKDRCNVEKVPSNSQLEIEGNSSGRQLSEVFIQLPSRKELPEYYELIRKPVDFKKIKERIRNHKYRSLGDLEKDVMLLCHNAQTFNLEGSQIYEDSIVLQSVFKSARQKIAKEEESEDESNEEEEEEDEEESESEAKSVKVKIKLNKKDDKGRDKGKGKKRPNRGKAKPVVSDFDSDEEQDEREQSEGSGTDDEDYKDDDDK
Sequence of FL-SMARCA4 (P51532 whole entry): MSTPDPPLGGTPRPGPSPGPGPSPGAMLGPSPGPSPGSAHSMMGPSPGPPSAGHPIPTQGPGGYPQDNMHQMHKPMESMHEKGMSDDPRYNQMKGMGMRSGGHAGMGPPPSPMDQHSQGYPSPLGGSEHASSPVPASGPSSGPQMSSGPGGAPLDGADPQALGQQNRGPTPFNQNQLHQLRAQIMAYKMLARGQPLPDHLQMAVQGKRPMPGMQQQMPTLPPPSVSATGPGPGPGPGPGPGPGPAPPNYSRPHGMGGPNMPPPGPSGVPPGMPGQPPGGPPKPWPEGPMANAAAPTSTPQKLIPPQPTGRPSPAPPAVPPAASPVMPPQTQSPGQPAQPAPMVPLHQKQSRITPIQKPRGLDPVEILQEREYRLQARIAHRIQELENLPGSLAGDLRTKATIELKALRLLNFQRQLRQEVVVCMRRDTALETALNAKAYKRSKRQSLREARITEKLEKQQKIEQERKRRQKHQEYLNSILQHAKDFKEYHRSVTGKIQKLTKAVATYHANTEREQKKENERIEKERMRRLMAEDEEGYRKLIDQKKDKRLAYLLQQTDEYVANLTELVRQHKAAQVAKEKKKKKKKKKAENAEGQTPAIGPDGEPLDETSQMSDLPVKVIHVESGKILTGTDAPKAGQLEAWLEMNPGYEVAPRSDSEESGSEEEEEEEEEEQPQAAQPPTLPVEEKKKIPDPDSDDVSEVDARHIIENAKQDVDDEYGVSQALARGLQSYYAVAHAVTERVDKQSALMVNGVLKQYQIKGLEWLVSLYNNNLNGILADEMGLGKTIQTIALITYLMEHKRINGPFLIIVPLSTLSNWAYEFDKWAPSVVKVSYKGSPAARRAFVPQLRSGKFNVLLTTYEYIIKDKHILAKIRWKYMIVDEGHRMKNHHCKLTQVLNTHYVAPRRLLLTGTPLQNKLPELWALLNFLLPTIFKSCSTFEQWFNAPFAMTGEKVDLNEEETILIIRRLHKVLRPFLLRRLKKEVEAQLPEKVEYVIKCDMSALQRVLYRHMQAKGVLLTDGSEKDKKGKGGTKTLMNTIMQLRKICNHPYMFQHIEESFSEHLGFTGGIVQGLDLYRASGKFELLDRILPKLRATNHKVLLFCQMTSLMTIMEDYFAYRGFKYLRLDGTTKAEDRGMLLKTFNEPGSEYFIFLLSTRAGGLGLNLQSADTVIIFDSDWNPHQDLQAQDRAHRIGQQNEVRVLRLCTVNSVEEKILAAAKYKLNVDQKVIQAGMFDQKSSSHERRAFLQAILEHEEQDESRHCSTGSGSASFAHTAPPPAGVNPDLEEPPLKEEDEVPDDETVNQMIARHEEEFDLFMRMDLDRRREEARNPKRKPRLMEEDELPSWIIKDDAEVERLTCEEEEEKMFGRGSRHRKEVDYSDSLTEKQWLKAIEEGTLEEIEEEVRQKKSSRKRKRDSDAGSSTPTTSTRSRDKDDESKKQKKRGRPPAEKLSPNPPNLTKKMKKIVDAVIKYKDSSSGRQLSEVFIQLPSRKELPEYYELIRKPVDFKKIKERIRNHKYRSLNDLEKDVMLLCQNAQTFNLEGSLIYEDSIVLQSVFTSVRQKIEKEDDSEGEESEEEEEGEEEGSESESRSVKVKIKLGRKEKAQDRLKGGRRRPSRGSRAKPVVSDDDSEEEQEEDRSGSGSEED

With `Cn1c(C(=O)Nc2cc(F)c(=O)n(CC(F)(F)F)c2)cnc1C#N` [Compound 221], the values for the half-inhibitory concentration (IC50) (in assay [1]; against FL-SMARCA4) were 1.45 µM and 6.28 µM, respectively.

For `Nc1ncc(C(=O)Nc2cc(F)c(=O)n(CCF)c2)s1` [Compound 224], the IC50 (in assay [1]; at FL-SMARCA4) was over 50 µM each time.

Consider `CC(C)Nc1ncc(C(=O)Nc2cc(F)c(=O)n(CCF)c2)s1` [Compound 225], for which the IC50 (in assay [1]; against FL-SMARCA4) was over 50 µM throughout.

Consider `NC(=O)c1ncc(C(=O)Nc2cc(F)c(=O)n(CCF)c2)s1` [Compound 226], for which the IC50 (in assay [1]; on FL-SMARCA4) was over 50 µM throughout.

With `Cn1cc(C(=O)Nc2cc(F)c(=O)n(CCF)c2)sc1=O` [Compound 227], the half-maximal inhibitory concentration (IC50) (in assay [1]; against FL-SMARCA4) was over 50 µM each time.

As to `CNc1ncc(C(=O)Nc2cc(F)c(=O)n(CCF)c2)s1` [Compound 228], the IC50 (in assay [1]; against FL-SMARCA4) was over 50 µM in each case.

Turning to `N#Cc1cc(C(=O)Nc2cc(F)c(=O)n(CCF)c2)[nH]c1Cl` [Compound 229], the IC50 turned out to be 0.602 µM in assay [1] and 1.88 µM against FL-SMARCA4.

In the case of `Cn1nc(C(=O)Nc2cc(F)c(=O)n(CCF)c2)cc1Cl` [Compound 230], the concentration for half-maximal inhibition (IC50) (in assay [1]; against FL-SMARCA4) was over 50 µM throughout.

Regarding `Cn1nc(Cl)cc1C(=O)Nc1cc(F)c(=O)n(CCF)c1` [Compound 233], the IC50 is 7.63 µM in assay [1] and 36.4 µM against FL-SMARCA4.

As for `O=C(Nc1cc(F)c(=O)n(CCF)c1)c1c[nH]c(=O)s1` [Compound 239], the IC50 (in assay [1]; against FL-SMARCA4) was over 50 µM each time.

As for `N#Cc1[nH]c(C(=O)Nc2cc(Cl)c(=O)n(CCF)c2)cc1Cl` [Compound 241], the IC50 in assay [1] is 0.112 µM; against FL-SMARCA4, 0.653 µM.

Turning to `Cn1nc(C#N)cc1C(=O)Nc1cc(F)c(=O)n(CCF)c1` [Compound 243], the half-inhibitory concentration (IC50) in assay [1] amounted to 1.64 µM; on FL-SMARCA4, 11.7 µM.

As to `Cn1nc(C(=O)Nc2cc(F)c(=O)n(CCF)c2)cc1C#N` [Compound 244], the IC50 (in assay [1]; on FL-SMARCA4) was over 50 µM in each case.

`N#Cc1cc(C(=O)Nc2cc(F)c(=O)n(CCF)c2)oc1Cl` [Compound 245]: the figures for the half-inhibitory concentration (IC50) (in assay [1]; on FL-SMARCA4) were 2 µM and 12.1 µM, respectively.

As for `N#Cc1cc(C(=O)Nc2cc(F)c(=O)n(CCF)c2)oc1C#N` [Compound 246], the IC50 in assay [1] stood at 1.35 µM; against FL-SMARCA4 it was 6.37 µM.

For `Cc1cc(C(=O)Nc2cc(F)c(=O)n(CCF)c2)on1` [Compound 250], the IC50 was 25.4 µM in assay [1] and over 50 µM on FL-SMARCA4.

Consider `O=C(Nc1cc(F)c(=O)n(CCF)c1)c1cnc(Br)o1` [Compound 252], for which the IC50 (in assay [1]; against FL-SMARCA4) was over 50 µM throughout.

In the case of `O=C(Nc1cc(F)c(=O)n(CCF)c1)c1cnc(Cl)o1` [Compound 253], the IC50 (in assay [1]; against FL-SMARCA4) was over 50 µM in each case.

For the compound `O=C(Nc1cc(F)c(=O)n(CCF)c1)c1cc(Cl)c(Cl)o1` [Compound 254], the concentration for half-maximal inhibition (IC50) came out at 5.81 µM in assay [1] and 47.1 µM at FL-SMARCA4.

Regarding `O=C(Nc1cc(F)c(=O)n(CC(F)(F)F)c1)c1cc(Cl)c(Cl)o1` [Compound 255], the half-maximal inhibitory concentration (IC50) in assay [1] is 16.7 µM; at FL-SMARCA4, over 50 µM.

For the compound `O=C(Nc1cc(NCCN2CCOCC2)c(=O)n(CCF)c1)c1cc(Cl)c(Cl)s1` [Compound 256], the results for the IC50 (in assay [1]; against FL-SMARCA4) were 6.34 µM and 21.4 µM, respectively.

Regarding `O=C(Nc1cc(NCCc2cccnc2)c(=O)n(CCF)c1)c1cc(Cl)c(Cl)s1` [Compound 257], the half-maximal inhibitory concentration (IC50) in assay [1] came to 19.1 µM; on FL-SMARCA4, 23.7 µM.

`CC(=O)Nc1ncc(C(=O)Nc2cc(F)c(=O)n(CCF)c2)s1` [Compound 258]: the concentration for half-maximal inhibition (IC50) (in assay [1]; against FL-SMARCA4) was over 50 µM in each case.

Turning to `O=C(Nc1cc(NCCN2CCCC2)c(=O)n(CCF)c1)c1cc(Cl)c(Cl)s1` [Compound 261], the figures for the IC50 (in assay [1]; on FL-SMARCA4) were 7.37 µM and 24.4 µM, respectively.

On to `CN(C)CCCNc1cc(NC(=O)c2cc(Cl)c(Cl)s2)cn(CCF)c1=O` [Compound 262], for which the half-inhibitory concentration (IC50) was 15.3 µM in assay [1] and 25.9 µM on FL-SMARCA4.

As for `O=C(Nc1cc(NCCn2ccnc2)c(=O)n(CCF)c1)c1cc(Cl)c(Cl)s1` [Compound 263], the concentration for half-maximal inhibition (IC50) in assay [1] is 21.6 µM; at FL-SMARCA4, 27.4 µM.

As for `O=C(Nc1cc(F)c(=O)n(CCF)c1)c1cc(C(F)(F)F)no1` [Compound 264], the half-inhibitory concentration (IC50) in assay [1] turned out to be 6.23 µM; at FL-SMARCA4 it was 38.5 µM.

As to `N#Cc1ncc(C(=O)Nc2cc(F)c(=O)n(CCF)c2)o1` [Compound 266], the IC50 (in assay [1]; against FL-SMARCA4) was over 50 µM throughout.

Consider `O=C(Nc1cc(NCC2CCCN2)c(=O)n(CCF)c1)c1cc(Cl)c(Cl)s1` (stereo not drawn) [Compound 268], for which the IC50 was determined as 16.7 µM in assay [1] and 41.8 µM on FL-SMARCA4.

As to `O=C(Nc1cc(F)c(=O)n(CCF)c1)c1cnc(OC(F)F)s1` [Compound 269], the IC50 was 5.19 µM in assay [1] and 24.9 µM against FL-SMARCA4.

With `O=C(Nc1cc(F)c(=O)n(CCc2cn[nH]c2)c1)c1cc(Cl)c(Cl)s1` [Compound 270], the 50% inhibitory concentration (IC50) (in assay [1]; on FL-SMARCA4) was over 50 µM throughout.

For the compound `O=C(Nc1cc(F)c(=O)n(CCF)c1)c1cnc(-n2ccnc2)s1` [Compound 271], the concentration for half-maximal inhibition (IC50) (in assay [1]; against FL-SMARCA4) was over 50 µM each time.

With `CCn1cc(NC(=O)c2cc(-c3ccn(C)n3)c(Cl)s2)ccc1=O` [Compound 272], the IC50 (in assay [1]; at FL-SMARCA4) was over 50 µM throughout.

Consider `O=C(Nc1cc(F)c(=O)n(CC(F)(F)F)c1)c1cnc(Cl)o1` [Compound 273], for which the IC50 (in assay [1]; at FL-SMARCA4) was over 50 µM throughout.

As to `O=C(Nc1cc(F)c(=O)n(CCn2ccnc2)c1)c1cc(Cl)c(Cl)s1` [Compound 274], the IC50 (in assay [1]; against FL-SMARCA4) was over 50 µM in each case.

Regarding `O=C(Nc1cc(F)c(=O)n(CCF)c1)c1cc(Cl)c(C#CCN2CCCC2)s1` [Compound 276], the half-inhibitory concentration (IC50) amounted to 28.7 µM in assay [1] and 47.1 µM on FL-SMARCA4.

Turning to `O=C(Nc1cc(F)c(=O)n(CCF)c1)c1cn(CC(F)(F)F)c(=O)s1` [Compound 277], the 50% inhibitory concentration (IC50) (in assay [1]; on FL-SMARCA4) was over 50 µM in each case.

Regarding `CNC(=O)c1sc(C(=O)Nc2cc(F)c(=O)n(CCF)c2)cc1Cl` [Compound 278], the IC50 (in assay [1]; on FL-SMARCA4) was over 50 µM throughout.

With `C/C=C/c1cc(C(=O)Nc2ccc(=O)n(CC)c2)sc1Cl` [Compound 279], the IC50 was 24 µM in assay [1] and over 50 µM against FL-SMARCA4.

Take `CCn1cc(NC(=O)c2cc(-c3cn(C)cn3)c(Cl)s2)ccc1=O` [Compound 280]: the half-maximal inhibitory concentration (IC50) (in assay [1]; against FL-SMARCA4) was over 50 µM throughout.

As for `O=C(Nc1cc(F)c(=O)n(CCF)c1)c1cnc(-n2ccnc2C(F)(F)F)s1` [Compound 281], the IC50 (in assay [1]; on FL-SMARCA4) was over 50 µM in each case.

Turning to `CN(C)C(=O)c1sc(C(=O)Nc2cc(F)c(=O)n(CCF)c2)cc1Cl` [Compound 282], the IC50 (in assay [1]; at FL-SMARCA4) was over 50 µM in each case.

Regarding `CCn1cc(NC(=O)c2cc(Cl)c(-c3ncco3)s2)ccc1=O` [Compound 283], the IC50 in assay [1] is 33.2 µM; against FL-SMARCA4, over 50 µM.

Regarding `O=C(Nc1cc(F)c(=O)n(CCF)c1)c1cc(Cl)c(CO)s1` [Compound 284], the concentration for half-maximal inhibition (IC50) came to 3.21 µM in assay [1] and 30.6 µM at FL-SMARCA4.

Turning to `CCn1cc(NC(=O)c2cc(C#CCN(C)C)c(Cl)s2)ccc1=O` [Compound 286], the 50% inhibitory concentration (IC50) in assay [1] is 9.49 µM; on FL-SMARCA4, 16.7 µM.

As to `CCn1cc(NC(=O)c2cc(C#Cc3cccnc3)c(Cl)s2)ccc1=O` [Compound 287], the IC50 in assay [1] worked out at 1.28 µM; against FL-SMARCA4, 3.66 µM.

`CS(=O)(=O)c1ccc(C(=O)Nc2cc(F)c(=O)n(CCF)c2)s1` [Compound 288]: the IC50 (in assay [1]; at FL-SMARCA4) was over 50 µM in each case.

Take `O=C(Nc1cc(F)c(=O)n(CCF)c1)c1cc(Cl)c(C(O)C(F)(F)F)s1` (stereo not drawn) [Compound 289]: the IC50 in assay [1] turned out to be 10.6 µM; at FL-SMARCA4, 42.6 µM.

As to `CNC(=O)c1cc(C(=O)Nc2cc(F)c(=O)n(CCF)c2)sc1Cl` [Compound 291], the 50% inhibitory concentration (IC50) (in assay [1]; on FL-SMARCA4) was over 50 µM each time.

In the case of `CCn1cc(NC(=O)c2cc(C#CCN)c(Cl)s2)ccc1=O` [Compound 292], the half-inhibitory concentration (IC50) in assay [1] amounted to 6.83 µM; against FL-SMARCA4 it was 8.48 µM.

On to `N#Cc1sc(C(=O)Nc2ccc(=O)n(CC(F)F)c2)cc1Cl` [Compound 293], for which the figures for the IC50 (in assay [1]; against FL-SMARCA4) were 0.127 µM and 0.3 µM, respectively.

As to `N#Cc1[nH]c(C(=O)Nc2ccc(=O)n(CC(F)F)c2)cc1Cl` [Compound 294], the IC50 in assay [1] is 0.117 µM; at FL-SMARCA4 it was 0.387 µM.

Consider `O=C(Nc1cc(F)c(=O)n(CC(F)F)c1)c1cc(Cl)c(C(F)F)s1` [Compound 296], for which the IC50 stood at 0.094 µM in assay [1] and 0.52 µM at FL-SMARCA4.

Take `CN(C)C(=O)c1cc(C(=O)Nc2cc(F)c(=O)n(CCF)c2)sc1Cl` [Compound 299]: the IC50 (in assay [1]; against FL-SMARCA4) was over 50 µM each time.

With `CCn1cc(NC(=O)c2cc(C#CCO)c(Cl)s2)ccc1=O` [Compound 300], the IC50 in assay [1] was determined as 2.74 µM; at FL-SMARCA4 it was 5.96 µM.

As to `CS(=O)(=O)c1sc(C(=O)Nc2cc(F)c(=O)n(CCF)c2)cc1Cl` [Compound 301], the IC50 in assay [1] is 16.7 µM; against FL-SMARCA4, over 50 µM.

In the case of `NC(=O)c1ccc(C(=O)Nc2cc(F)c(=O)n(CCF)c2)s1` [Compound 303], the IC50 (in assay [1]; on FL-SMARCA4) was over 50 µM in each case.

On to `CNC(=O)c1ccc(C(=O)Nc2cc(F)c(=O)n(CCF)c2)s1` [Compound 304], for which the IC50 (in assay [1]; on FL-SMARCA4) was over 50 µM each time.

Turning to `CNC(=O)c1cc(C(=O)Nc2cc(F)c(=O)n(CCF)c2)sc1C(F)(F)F` [Compound 305], the IC50 (in assay [1]; on FL-SMARCA4) was over 50 µM each time.

`CN(C)C(=O)c1ccc(C(=O)Nc2cc(F)c(=O)n(CCF)c2)s1` [Compound 306]: the IC50 (in assay [1]; against FL-SMARCA4) was over 50 µM each time.
